Test results taken from US20230406840A1, “N-(2-(3-CYANO-2-AZABICYCLO[3.1.0]HEXAN-2-YL)-2-OXOETHYL)QUINOLINE-4-CARBOXAMIDES” (AstraZeneca AB, priority 2022, published 2023).
Values after ≈ are worked out from the molar mass of the structure shown.

Assays:
[1] = target: human Fibroblast activation protein alpha (hFAP) (Homo sapiens (Human), UniProt Q12884); assay: hFAP inhibition assay (tight binders); assay type: biochemical; details: tight-binder format, Ala-Pro-AMC 20 μM, 2.5 h incubation; n = 1 or geometric mean (n = 5-10)
Description: Data were analyzed in Genedata Screener®.

[2] = target: Prolyl Oligopeptidase (hPREP) (Homo sapiens (Human), UniProt P48147); assay: hPREP inhibition assay; assay type: biochemical; details: hPREP 0.6 nM, Z-Gly-Pro-amino-methylcoumarin 50 μM; read-out: PREP IC50
Description: Compounds were tested in a biochemical inhibition assay using Prolyl endopeptidase, Prolyl Oligopeptidase (hPREP) enzyme at 0.6 nM FAC (R&D Systems, 4308-SE) and the substrate Z-Gly-Pro-amino-methylcoumarin (Bachem, I-1145) at 50 μM FAC. 384 Low volume black plates (Greiner #784076) were used. […] 4 μL, 100 μM substrate solution (25 mM Tris HCl, 250 mM NaCl, 0.01% Triton X-100, 5 mM Glutathione, pH 7.5) was added to each well. Plates were centrifuged at 1000 rpm and incubated for 20 min at rt in dark. […] Data were analyzed in Genedata Screener®.

[3] = Metabolic stability in human liver microsomes (HLM); assay type: in vitro ADME
Description: Metabolic stability in HLM was measured as described in J Comput Aided Mol Des 2015, 29, 795.

[4] = test system: Rat Hepatocytes (rHep); assay: Metabolic stability in rat hepatocytes (rHep); assay type: in vitro ADME
Description: Metabolic stability in rat hepatocytes was measured as described in J Comput Aided Mol Des 2015, 29, 795.

[5] = Kinetic solubility; assay type: physicochemical; details: kinetic from dmso stock
Description: Kinetic solubility was measured as described in Comput Aided Mol Des 2015, 29, 795.

[6] = target: hFAP (Homo sapiens (Human), UniProt Q12884);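 also: fluorescence read after incubating enzyme with substrate at room temperature, IC50 fitted from percent inhibition against log concentration with a one-site model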
[7] = target: hFAP (M39-A757) (Homo sapiens (Human), UniProt Q12884)
Description: Compounds were tested in a direct binding assay using 8K surface plasmon resonance biosensor (GE Healthcare) at 20° C. Immobilization of hFAP (M39-A757) on a CMD200M sensor chip (Xantec) was performed using standard amine coupling procedure in immobilization buffer (10 mM HEPES, 150 mM NaCl, 0.05% Tween20, pH 7.4). The surface was washed with 10 mM NaOH, 1M NaCl before being activated with EDC/NHS (GE Healthcare), followed by immobilization of hFAP (in 10 mM Acetate pH 5.0). Finally, the surface was deactivated by ethanolamine. Immobilization levels of hFAP were around 4000-6000 RU. The reference spot was treated as described, omitting the injection of hFAP. Compound concentration series were injected over the immobilized protein in increasing concentrations (2-500 nM) using single cycle kinetics in running buffer (20 mM TRIS, 150 mM NaCl, 0.05% Tween20, 1% DMSO, pH 7.4). Interaction models were fitted globally to the experimental traces, enabling determination of kon, koff and Kd.

[8] = test system: Human Hepatocytes (hHep); assay: Metabolic stability in human hepatocytes (hHep); assay type: in vitro ADME
Description: Metabolic stability in human hepatocytes was measured as described in Xenobiotica 2010, 40, 637.

Prolyl Oligopeptidase (hPREP), sequence (P48147 whole entry): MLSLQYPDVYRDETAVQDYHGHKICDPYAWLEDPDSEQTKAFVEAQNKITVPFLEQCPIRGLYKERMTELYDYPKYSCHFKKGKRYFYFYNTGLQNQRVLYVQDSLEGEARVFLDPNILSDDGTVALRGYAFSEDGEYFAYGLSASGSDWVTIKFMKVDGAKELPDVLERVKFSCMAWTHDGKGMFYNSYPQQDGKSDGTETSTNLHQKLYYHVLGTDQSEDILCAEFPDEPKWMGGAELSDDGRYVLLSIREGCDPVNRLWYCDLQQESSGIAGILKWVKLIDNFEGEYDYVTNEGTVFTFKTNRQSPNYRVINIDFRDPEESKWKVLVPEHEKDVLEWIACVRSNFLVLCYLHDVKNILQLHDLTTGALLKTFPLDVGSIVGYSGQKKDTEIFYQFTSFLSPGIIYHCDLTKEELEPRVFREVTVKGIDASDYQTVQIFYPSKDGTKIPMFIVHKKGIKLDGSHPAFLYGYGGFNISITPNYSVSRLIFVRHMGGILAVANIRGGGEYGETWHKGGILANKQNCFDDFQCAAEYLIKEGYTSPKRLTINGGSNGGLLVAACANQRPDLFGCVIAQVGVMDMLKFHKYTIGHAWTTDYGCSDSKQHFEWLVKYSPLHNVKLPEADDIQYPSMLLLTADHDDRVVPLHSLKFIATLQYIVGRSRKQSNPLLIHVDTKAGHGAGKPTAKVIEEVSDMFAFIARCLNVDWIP
hFAP (M39-A757), sequence (Q12884 39-757): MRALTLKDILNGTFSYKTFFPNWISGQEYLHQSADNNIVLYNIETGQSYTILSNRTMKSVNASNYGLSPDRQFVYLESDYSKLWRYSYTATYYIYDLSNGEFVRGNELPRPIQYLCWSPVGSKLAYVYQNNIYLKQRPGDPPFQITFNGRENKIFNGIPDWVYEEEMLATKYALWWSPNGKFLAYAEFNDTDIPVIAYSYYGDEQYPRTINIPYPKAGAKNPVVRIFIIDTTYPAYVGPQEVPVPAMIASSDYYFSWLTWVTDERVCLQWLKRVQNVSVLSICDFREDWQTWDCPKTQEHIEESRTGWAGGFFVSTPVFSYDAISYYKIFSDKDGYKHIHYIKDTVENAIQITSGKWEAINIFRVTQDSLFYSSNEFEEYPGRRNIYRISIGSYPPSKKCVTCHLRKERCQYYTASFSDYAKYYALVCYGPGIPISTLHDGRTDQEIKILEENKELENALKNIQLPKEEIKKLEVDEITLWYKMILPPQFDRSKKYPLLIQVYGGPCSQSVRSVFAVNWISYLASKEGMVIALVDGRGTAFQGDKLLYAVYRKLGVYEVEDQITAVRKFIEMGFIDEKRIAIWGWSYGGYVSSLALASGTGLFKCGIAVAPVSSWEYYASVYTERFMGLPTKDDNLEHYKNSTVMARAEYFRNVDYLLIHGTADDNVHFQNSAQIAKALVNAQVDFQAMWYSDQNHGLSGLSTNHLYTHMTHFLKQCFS
human Fibroblast activation protein alpha (hFAP), sequence (Q12884 38-760): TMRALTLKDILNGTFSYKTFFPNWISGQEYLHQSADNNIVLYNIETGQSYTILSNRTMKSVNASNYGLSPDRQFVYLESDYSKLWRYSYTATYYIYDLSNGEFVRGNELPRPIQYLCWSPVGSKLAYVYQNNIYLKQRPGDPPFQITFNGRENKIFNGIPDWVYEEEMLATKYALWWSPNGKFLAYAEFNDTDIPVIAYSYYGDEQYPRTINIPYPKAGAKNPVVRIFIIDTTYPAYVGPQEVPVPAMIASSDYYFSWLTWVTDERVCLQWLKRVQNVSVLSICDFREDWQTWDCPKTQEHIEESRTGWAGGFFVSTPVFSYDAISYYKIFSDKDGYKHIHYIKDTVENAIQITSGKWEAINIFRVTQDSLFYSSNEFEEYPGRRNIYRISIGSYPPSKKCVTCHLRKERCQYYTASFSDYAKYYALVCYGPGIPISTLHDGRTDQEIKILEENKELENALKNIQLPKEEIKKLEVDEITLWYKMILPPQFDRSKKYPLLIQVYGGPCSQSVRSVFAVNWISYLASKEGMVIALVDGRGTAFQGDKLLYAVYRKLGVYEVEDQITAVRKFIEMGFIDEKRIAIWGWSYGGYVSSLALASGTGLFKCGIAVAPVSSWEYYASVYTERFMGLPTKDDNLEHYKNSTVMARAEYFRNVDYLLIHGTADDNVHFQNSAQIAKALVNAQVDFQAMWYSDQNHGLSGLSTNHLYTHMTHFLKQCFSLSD
hFAP, sequence (Q12884 38-760): as above

N#C[C@@H]1C[C@@H]2C[C@@H]2N1C(=O)CNC(=O)c1ccnc2ccc(CF)cc12 [Example 11, N-(2-((1S,3S,5S)-3-Cyano-2-azabicyclo[3.1.0]hexan-2-yl)-2-oxoethyl)-6-(fluoromethyl)quinoline-4-carboxamide]
IC50 [1]: 0.4 nM
IC50 [2]: > 50000 nM
microsomal CLint [3]: < 3 µL/min/mg
rHeps CLint [4]: 5.3 μL/min/1E6
solubility [5]: 970 µM (≈ 342 µg/mL)
IC50 [6]: 2.2 nM
Kd [7]: 17 nM

CC(C)(F)c1ccc2nccc(C(=O)NCC(=O)N3[C@H](C#N)C[C@@H]4C[C@@H]43)c2c1 [Example 12, N-(2-((1S,3S,5S)-3-Cyano-2-azabicyclo[3.1.0]hexan-2-yl)-2-oxoethyl)-6-(2-fluoropropan-2-yl)quinoline-4-carboxamide]
IC50 [1]: 0.75 nM
IC50 [2]: > 50000 nM
microsomal CLint [3]: 100 µL/min/mg
rHeps CLint [4]: 20 μL/min/1E6
solubility [5]: 300 µM (≈ 114 µg/mL)
IC50 [6]: 3.8 nM
Kd [7]: 13 nM

COC(C)(C)c1ccc2nccc(C(=O)NCC(=O)N3[C@H](C#N)C[C@@H]4C[C@@H]43)c2c1 [Example 16, N-(2-((1S,3S,5S)-3-Cyano-2-azabicyclo[3.1.0]hexan-2-yl)-2-oxoethyl)-6-(2-methoxypropan-2-yl)quinoline-4-carboxamide]
IC50 [1]: 0.81 nM
IC50 [2]: > 50000 nM
microsomal CLint [3]: 72 µL/min/mg
rHeps CLint [4]: 21 μL/min/1E6
solubility [5]: > 1000 µM
IC50 [6]: 4.2 nM
Kd [7]: 20 nM

N#C[C@@H]1C[C@@H]2C[C@@H]2N1C(=O)CNC(=O)c1ccnc2ccc(COC(F)(F)F)cc12 [Example 17, N-(2-((1S,3S,5S)-3-Cyano-2-azabicyclo[3.1.0]hexan-2-yl)-2-oxoethyl)-6-((trifluoromethoxy)methyl)quinoline-4-carboxamide]
IC50 [1]: 0.38 nM
IC50 [2]: > 50000 nM
microsomal CLint [3]: 110 µL/min/mg
rHeps CLint [4]: 21 μL/min/1E6
solubility [5]: 340 µM (≈ 142 µg/mL)
IC50 [6]: 1.7 nM
Kd [7]: 8.5 nM

CC(C)(F)c1ccc2c(C(=O)NCC(=O)N3[C@H](C#N)C[C@@H]4C[C@@H]43)ccnc2c1 [Example 21, N-(2-((1S,3S,5S)-3-Cyano-2-azabicyclo[3.1.0]hexan-2-yl)-2-oxoethyl)-7-(2-fluoropropan-2-yl)quinoline-4-carboxamide]
IC50 [1]: 0.97 nM
IC50 [2]: > 50000 nM
microsomal CLint [3]: 13 µL/min/mg
rHeps CLint [4]: 70 μL/min/1E6
solubility [5]: 56 µM (≈ 21.3 µg/mL)
IC50 [6]: 2.8 nM
Kd [7]: 10 nM

N#C[C@@H]1C[C@@H]2C[C@@H]2N1C(=O)CNC(=O)c1ccnc2cc(C(F)F)ccc12 [Example 22, N-(2-((1S,3S,5S)-3-Cyano-2-azabicyclo[3.1.0]hexan-2-yl)-2-oxoethyl)-7-(difluoromethyl)quinoline-4-carboxamide]
IC50 [1]: 0.51 nM
IC50 [2]: > 50000 nM
microsomal CLint [3]: < 5.8 µL/min/mg
rHeps CLint [4]: 2.9 μL/min/1E6
hHep CLint [8]: <1 μL/min/1E6
solubility [5]: > 1000 µM
IC50 [6]: 1.5 nM

N#C[C@@H]1C[C@@H]2C[C@@H]2N1C(=O)CNC(=O)c1ccnc2cc(CF)ccc12 [Example 24, N-(2-((1S,3S,5S)-3-Cyano-2-azabicyclo[3.1.0]hexan-2-yl)-2-oxoethyl)-7-(fluoromethyl)quinoline-4-carboxamide]
IC50 [1]: 0.3 nM
IC50 [2]: > 45000 nM
microsomal CLint [3]: < 3 µL/min/mg
rHeps CLint [4]: 2.7 μL/min/1E6
solubility [5]: > 1000 µM
IC50 [6]: 1.2 nM
Kd [7]: 8.2 nM

COC(C)c1ccc2c(C(=O)NCC(=O)N3[C@H](C#N)C[C@@H]4C[C@@H]43)ccnc2c1 (stereo partly drawn) [Example 27, N-(2-((1S,3S,5S)-3-Cyano-2-azabicyclo[3.1.0]hexan-2-yl)-2-oxoethyl)-7-(1-methoxyethyl)quinoline-4-carboxamide]
IC50 [1]: 2 nM
IC50 [2]: > 50000 nM
microsomal CLint [3]: 21 µL/min/mg
rHeps CLint [4]: 7.2 μL/min/1E6
hHep CLint [8]: 3.1 μL/min/1E6
solubility [5]: > 1000 µM
IC50 [6]: 6 nM

COC(C)(C)c1ccc2c(C(=O)NCC(=O)N3[C@H](C#N)C[C@@H]4C[C@@H]43)ccnc2c1 [Example 28, N-(2-((1S,3S,5S)-3-Cyano-2-azabicyclo[3.1.0]hexan-2-yl)-2-oxoethyl)-7-(2-methoxypropan-2-yl)quinoline-4-carboxamide]
IC50 [1]: 1.3 nM
IC50 [2]: > 50000 nM
microsomal CLint [3]: 36 µL/min/mg
rHeps CLint [4]: 5.2 μL/min/1E6
solubility [5]: > 1000 µM
IC50 [6]: 4.6 nM
Kd [7]: 7.8 nM

N#C[C@@H]1C[C@@H]2C[C@@H]2N1C(=O)CNC(=O)c1ccnc2cc(COC(F)(F)F)ccc12 [Example 29, N-(2-((1S,3S,5S)-3-Cyano-2-azabicyclo[3.1.0]hexan-2-yl)-2-oxoethyl)-7-((trifluoromethoxy)methyl)quinoline-4-carboxamide]
IC50 [1]: 0.3 nM
IC50 [2]: > 50000 nM
microsomal CLint [3]: 8.9 µL/min/mg
rHeps CLint [4]: 81 μL/min/1E6
solubility [5]: 23 µM (≈ 9.62 µg/mL)
IC50 [6]: 1.3 nM
Kd [7]: 11 nM

CC(C)Oc1ccc2nccc(C(=O)NCC(=O)N3[C@H](C#N)C[C@@H]4C[C@@H]43)c2c1 [Example 34, N-(2-((1S,3S,5S)-3-Cyano-2-azabicyclo[3.1.0]hexan-2-yl)-2-oxoethyl)-6-isopropoxyquinoline-4-carboxamide]
IC50 [1]: 1.2 nM
IC50 [2]: > 50000 nM
microsomal CLint [3]: 160 µL/min/mg
rHeps CLint [4]: 20 μL/min/1E6
hHep CLint [8]: 15 μL/min/1E6
solubility [5]: 850 µM (≈ 322 µg/mL)
IC50 [6]: 4.1 nM

N#C[C@@H]1C[C@@H]2C[C@@H]2N1C(=O)CNC(=O)c1ccnc2ccc(OCC3CC3)cc12 [Example 35, N-(2-((1S,3S,5S)-3-Cyano-2-azabicyclo[3.1.0]hexan-2-yl)-2-oxoethyl)-6-(cyclopropylmethoxy)quinoline-4-carboxamide]
IC50 [1]: 0.097 nM
IC50 [2]: > 50000 nM
microsomal CLint [3]: 90 µL/min/mg
rHeps CLint [4]: 16 μL/min/1E6
hHep CLint [8]: 12 μL/min/1E6
solubility [5]: 590 µM (≈ 230 µg/mL)
IC50 [6]: 0.64 nM

N#C[C@@H]1C[C@@H]2C[C@@H]2N1C(=O)CNC(=O)c1ccnc2cc(C3(C(F)(F)F)CC3)ccc12 [Example 36, N-(2-((1S,3S,5S)-3-Cyano-2-azabicyclo[3.1.0]hexan-2-yl)-2-oxoethyl)-7-(1-(trifluoromethyl)cyclopropyl)quinoline-4-carboxamide]
IC50 [1]: 0.58 nM
IC50 [2]: > 50000 nM
microsomal CLint [3]: 180 µL/min/mg
rHeps CLint [4]: 92 μL/min/1E6
solubility [5]: 210 µM (≈ 90 µg/mL)
IC50 [6]: 3.4 nM
Kd [7]: 4.3 nM

CC1(c2ccc3nccc(C(=O)NCC(=O)N4[C@H](C#N)C[C@@H]5C[C@@H]54)c3c2)CC1 [Example 43, N-(2-((1S,3S,5S)-3-Cyano-2-azabicyclo[3.1.0]hexan-2-yl)-2-oxoethyl)-6-(1-methylcyclopropyl)quinoline-4-carboxamide]
IC50 [1]: 0.56 nM
IC50 [2]: > 50000 nM
microsomal CLint [3]: 260 µL/min/mg
rHeps CLint [4]: 67 μL/min/1E6
solubility [5]: 820 µM (≈ 307 µg/mL)
IC50 [6]: 2.9 nM
Kd [7]: 11 nM

N#C[C@@H]1C[C@@H]2C[C@@H]2N1C(=O)CNC(=O)c1ccnc2ccc(C3(C(F)(F)F)CC3)cc12 [Example 44, N-(2-((1S,3S,5S)-3-Cyano-2-azabicyclo[3.1.0]hexan-2-yl)-2-oxoethyl)-6-(1-(trifluoromethyl)cyclopropyl)quinoline-4-carboxamide]
IC50 [1]: 1.1 nM
IC50 [2]: > 50000 nM
microsomal CLint [3]: > 300 µL/min/mg
rHeps CLint [4]: 150 μL/min/1E6
solubility [5]: 510 µM (≈ 218 µg/mL)
IC50 [6]: 4.6 nM
Kd [7]: 12 nM

CCOC1(c2ccc3nccc(C(=O)NCC(=O)N4[C@H](C#N)C[C@@H]5C[C@@H]54)c3c2)CC1 [Example 45, N-(2-((1S,3S,5S)-3-Cyano-2-azabicyclo[3.1.0]hexan-2-yl)-2-oxoethyl)-6-(1-ethoxycyclopropyl)quinoline-4-carboxamide]
IC50 [1]: 0.25 nM
IC50 [2]: > 50000 nM
microsomal CLint [3]: 120 µL/min/mg
rHeps CLint [4]: 40 μL/min/1E6
solubility [5]: > 1000 µM
IC50 [6]: 0.76 nM
Kd [7]: 7.3 nM

N#C[C@@H]1C[C@@H]2C[C@@H]2N1C(=O)CNC(=O)c1ccnc2ccc(C3(C#N)CC3)cc12 [Example 46, N-(2-((1S,3S,5S)-3-Cyano-2-azabicyclo[3.1.0]hexan-2-yl)-2-oxoethyl)-6-(1-cyanocyclopropyl)quinoline-4-carboxamide]
IC50 [1]: 0.18 nM
IC50 [2]: > 50000 nM
microsomal CLint [3]: 20 µL/min/mg
rHeps CLint [4]: 6.6 μL/min/1E6
hHep CLint [8]: <1 μL/min/1E6
solubility [5]: 110 µM (≈ 42.4 µg/mL)
IC50 [6]: 1.7 nM
Kd [7]: 25 nM
